For experiment [1], the target named is T1, Alpha-2A adrenergic receptor (Homo sapiens, UniProt P08913).
T1 sequence (P08913 whole entry): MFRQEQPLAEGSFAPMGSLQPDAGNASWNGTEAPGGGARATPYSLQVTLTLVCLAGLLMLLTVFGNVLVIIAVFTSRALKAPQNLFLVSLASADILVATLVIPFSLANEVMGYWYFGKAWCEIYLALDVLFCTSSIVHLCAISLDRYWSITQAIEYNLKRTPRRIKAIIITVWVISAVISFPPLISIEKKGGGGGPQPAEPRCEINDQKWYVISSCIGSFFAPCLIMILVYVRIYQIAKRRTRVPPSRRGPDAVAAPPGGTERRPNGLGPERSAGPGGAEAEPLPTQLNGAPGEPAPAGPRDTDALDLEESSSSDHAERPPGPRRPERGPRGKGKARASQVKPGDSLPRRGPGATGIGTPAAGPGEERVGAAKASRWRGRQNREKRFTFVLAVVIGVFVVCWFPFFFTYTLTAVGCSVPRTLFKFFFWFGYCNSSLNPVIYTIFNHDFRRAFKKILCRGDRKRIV
The experiment in a line: Binding affinity at human recombinant adrenergic alpha2A receptor expressed in CHO cells by radioligand binding assay. The class given is cell-based.

Experiment [2] addresses T2, Alpha-2B adrenergic receptor (Homo sapiens, UniProt P18089).
T2 sequence (P18089 whole entry): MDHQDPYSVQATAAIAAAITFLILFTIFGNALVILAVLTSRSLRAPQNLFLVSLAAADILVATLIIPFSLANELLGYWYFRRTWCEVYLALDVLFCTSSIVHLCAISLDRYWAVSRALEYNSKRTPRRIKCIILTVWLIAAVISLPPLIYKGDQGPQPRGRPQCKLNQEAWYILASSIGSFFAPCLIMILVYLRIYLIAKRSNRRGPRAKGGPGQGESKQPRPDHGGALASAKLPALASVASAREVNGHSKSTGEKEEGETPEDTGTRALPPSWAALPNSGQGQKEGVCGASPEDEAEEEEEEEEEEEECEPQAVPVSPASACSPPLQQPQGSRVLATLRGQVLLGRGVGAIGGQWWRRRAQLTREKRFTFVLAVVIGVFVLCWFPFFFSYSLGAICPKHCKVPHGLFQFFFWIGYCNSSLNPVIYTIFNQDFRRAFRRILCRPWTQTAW
The experiment in a line: Antagonist activity at human recombinant adrenergic alpha2B receptor expressed in CHO cells assessed as inhibition of NE-induced calcium mobilization by FLIPR. The class given is functional, cell-based. For orientation: A change in cytosolic calcium serves as a functional read-out for many receptors and channels.

Experiment [3] is filed under the species Homo sapiens. The experiment in a line: Selectivity human recombinant adrenergic Alpha-2C receptor over human recombinant adrenergic alpha2A receptor by FLIPR.
Experiment [4] has as its target T1, Alpha-2A adrenergic receptor. The experiment in a line: Antagonist activity at human recombinant adrenergic alpha2A receptor expressed in CHO cells assessed as inhibition of NE-induced calcium mobilization by FLIPR. The experiment is classed as functional, cell-based.
Experiment [5] addresses T3, Alpha-2C adrenergic receptor (Homo sapiens, UniProt P18825).
T3 sequence (P18825 whole entry): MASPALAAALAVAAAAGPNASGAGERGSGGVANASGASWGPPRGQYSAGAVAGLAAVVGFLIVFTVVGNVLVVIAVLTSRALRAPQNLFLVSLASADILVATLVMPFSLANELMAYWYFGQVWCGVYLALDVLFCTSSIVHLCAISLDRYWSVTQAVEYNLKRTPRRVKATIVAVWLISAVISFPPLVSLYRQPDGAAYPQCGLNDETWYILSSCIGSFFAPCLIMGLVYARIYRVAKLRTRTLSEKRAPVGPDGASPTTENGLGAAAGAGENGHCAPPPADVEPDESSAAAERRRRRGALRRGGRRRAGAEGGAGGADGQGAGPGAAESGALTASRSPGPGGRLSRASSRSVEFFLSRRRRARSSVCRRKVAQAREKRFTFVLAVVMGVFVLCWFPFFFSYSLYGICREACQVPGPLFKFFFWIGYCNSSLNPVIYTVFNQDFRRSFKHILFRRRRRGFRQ
The experiment in a line: Antagonist activity at human recombinant adrenergic Alpha-2C receptor expressed in CHO cells assessed as inhibition of NE-induced calcium mobilization by FLIPR. The class given is functional, cell-based.

Experiment [6] is filed under the species Homo sapiens. The experiment in a line: Selectivity for human recombinant adrenergic Alpha-2C receptor over human recombinant adrenergic alpha2A receptor by radioligand binding assay.
Experiment [7] deals with T2, Alpha-2B adrenergic receptor. The experiment in a line: Binding affinity at human recombinant adrenergic alpha2B receptor expressed in CHO cells by radioligand binding assay. The experiment is classed as cell-based.
For experiment [8], the species on record is Homo sapiens. The experiment in a line: Selectivity for human recombinant adrenergic Alpha-2C receptor over human recombinant adrenergic alpha2B receptor by radioligand binding assay.
Experiment [9] concerns the target T3, Alpha-2C adrenergic receptor. The experiment in a line: Binding affinity at human recombinant adrenergic Alpha-2C receptor expressed in CHO cells by radioligand binding assay. The experiment is classed as cell-based.
For experiment [10], the species on record is Homo sapiens. The experiment in a line: Selectivity human recombinant adrenergic Alpha-2C receptor over human recombinant adrenergic alpha2B receptor by FLIPR.

pKi: −log10 of the molar value. A value given as a limit tells only on which side of the number the result lay.

With `CC(C)(C)Nc1ncccc1C(=O)NCCN1CCCN(CC2COc3ccccc3O2)CC1` (stereo unspecified), the pKi is 6.86 in [1]; 6.99 in experiment [2]; 6.44 in [4]; 7.52 in experiment [5]; 7.55 in experiment [7]; 9.30 in [9]. The Ratio Ki in the experiment filed under Homo sapiens [3] worked out at 12; in the experiment listed under Homo sapiens [6], 286; in the experiment filed under Homo sapiens [8] it was 58; in the experiment listed under Homo sapiens [10] it was 3.

Consider `O=C(NCCN1CCN(CC2COc3ccccc3O2)CC1)c1cccnc1Oc1ccccc1` (stereo unspecified), for which the pKi is 7.57 in [1], 8.10 in experiment [7] and 8.52 in experiment [9]. The values for the Ratio Ki in the experiment filed under Homo sapiens [6] and in the experiment filed under Homo sapiens [8] were 9 and 3, respectively.

For `c1ccc(Oc2ncccc2COCCN2CCCN(CC3COc4ccccc4O3)CC2)cc1` (stereo unspecified), the pKi was 7.18 in experiment [1]; 6.88 in experiment [2]; 6.56 in experiment [4]; 8.17 in [5]; 7.16 in experiment [7]; 8.60 in experiment [9]. For the same molecule, the Ratio Ki in the experiment listed under Homo sapiens [3] amounted to 41; in the experiment filed under Homo sapiens [6], 26; in the experiment listed under Homo sapiens [8] it was 28; in the experiment listed under Homo sapiens [10], 19.

As to `c1ccc(CN2CCN(CC3CCc4ccccc4O3)CC2)cc1` (stereo unspecified), the pKi is 6.84 in [1]; 6.74 in [2]; 6.78 in [4]; 7.68 in experiment [5]; 7.14 in experiment [7]; 7.71 in [9]. Further, the Ratio Ki in the experiment listed under Homo sapiens [3] was 8; in the experiment listed under Homo sapiens [6] it was 7; in the experiment filed under Homo sapiens [8], 4; in the experiment filed under Homo sapiens [10], 9.

Regarding `COc1ccccc1N1CCN(CC2COc3ccccc3O2)CC1` (stereo unspecified), the pKi in experiment [1] was 6.30; in experiment [2], 7.77; in [4] it was 6.78; in experiment [5] it was 7.64; in experiment [7], 6.71; in [9], 7.48. Besides, the Ratio Ki worked out at 7 in the experiment listed under Homo sapiens [3], 15 in the experiment filed under Homo sapiens [6], 6 in the experiment listed under Homo sapiens [8] and 1 in the experiment listed under Homo sapiens [10].

Turning to `c1ccc(CN2CCN(CC3COc4ccccc4C3)CC2)cc1` (stereo unspecified), the pKi in experiment [1], in [7] and in experiment [9] was less than 6.30 each time.

With `O=C(NCCN1CCCN(C[C@@H]2COc3ccccc3O2)CC1)c1cccnc1Oc1ccccc1`, the results for the Ratio Ki in the experiment filed under Homo sapiens [6] and in the experiment listed under Homo sapiens [8] were 53 and 12, respectively. Further, the negative logarithm of the Ki (pKi) in experiment [9] was 8.04.

Take `c1ccc(Oc2ncccc2-c2noc(CN3CCCN(CC4COc5ccccc5O4)CC3)n2)cc1` (stereo unspecified): the pKi is 7.35 in [1]; 8.28 in experiment [2]; 7.81 in [4]; 8.77 in experiment [5]; 7.82 in experiment [7]; 8.72 in experiment [9]. For the same molecule, the Ratio Ki in the experiment filed under Homo sapiens [3] was found to be 9; in the experiment filed under Homo sapiens [6], 23; in the experiment listed under Homo sapiens [8], 8; in the experiment listed under Homo sapiens [10], 3.

Regarding `O=C(NCCN1CCCN(CC2COc3ccccc3O2)CC1)c1cccnc1Oc1ccccc1` (stereo unspecified), the pKi is 6.66 in experiment [1]; 6.88 in experiment [2]; 6.32 in experiment [4]; 7.60 in experiment [5]; 7.31 in experiment [7]; 8.30 in experiment [9]. The Ratio Ki in the experiment listed under Homo sapiens [3] came to 19; in the experiment filed under Homo sapiens [6], 44; in the experiment filed under Homo sapiens [8] it was 10; in the experiment listed under Homo sapiens [10] it was 5.

In the case of `CCCCOc1ncccc1C(=O)NCCN1CCCN(CC2COc3ccccc3O2)CC1` (stereo unspecified), the negative-log Ki (pKi) in experiment [1] was 7.09; in experiment [2], 7.88; in experiment [4], 7.13; in [5], 8.32; in [7] it was 7.98; in [9] it was 9.10. Moreover, the Ratio Ki came to 15 in the experiment listed under Homo sapiens [3], 103 in the experiment listed under Homo sapiens [6], 13 in the experiment filed under Homo sapiens [8] and 3 in the experiment listed under Homo sapiens [10].

With `O=C(NCCN1CCCN(CC2COc3ccccc3O2)CC1)c1cccnc1` (stereo unspecified), the pKi in experiment [1] is 6.35; in experiment [7], 7.75; in [9], 7.80. Further, the Ratio Ki worked out at 28 in the experiment listed under Homo sapiens [6] and 1 in the experiment filed under Homo sapiens [8].

`CCCCOc1cccc(C(=O)NCCN2CCCN(CC3COc4ccccc4O3)CC2)n1` (stereo unspecified): the pKi in [1] was 6.93; in experiment [2], 7.85; in [4] it was 7.32; in [5], 8.42; in experiment [7] it was 7.96; in experiment [9], 9.22. The Ratio Ki was 13 in the experiment listed under Homo sapiens [3], 195 in the experiment filed under Homo sapiens [6], 18 in the experiment filed under Homo sapiens [8] and 4 in the experiment listed under Homo sapiens [10].

For `N#Cc1cccc(Oc2ncccc2C(=O)NCCN2CCCN(CC3COc4ccccc4O3)CC2)c1` (stereo unspecified), the pKi in [1] was 6.68; in [2], 7.56; in experiment [4], 6.30; in [5], 8.72; in experiment [7], 7.44; in experiment [9], 9.10. Besides, the Ratio Ki in the experiment listed under Homo sapiens [3] is 262; in the experiment listed under Homo sapiens [6], 275; in the experiment listed under Homo sapiens [8], 48; in the experiment listed under Homo sapiens [10] it was 14.

For orientation: pKi means −log10 of the Ki, conventionally taken in molar units.
